PubChem BioAssay (NCI)
“And” between values parts separate entries of the source, which are not always exact repeats. Identical values can stand only once.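 Cells were grown in 96-well plates and exposed to each compound for 48 hours at five concentrations; endpoints were interpolated linearly between bracketing concentrations, or set to the highest concentration if not reached. GI50 marks 50% less growth. At the TGI there is no net growth.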

What was measured:
Assay in all cases: NCI-60 cell line screen, 48 h
EKVX NSCLC = system: EKVX NSCLC
HCC-2998 colon = system: HCC-2998 colon
HCT-15 colon = system: HCT-15 colon
M14 melanoma = system: M14 melanoma
MCF7 breast = system: MCF7 breast
NCI/ADR-RES ovarian = system: NCI/ADR-RES ovarian
OVCAR-4 ovarian = system: OVCAR-4 ovarian
SK-MEL-5 melanoma = system: SK-MEL-5 melanoma
SW-620 colon = system: SW-620 colon
TK-10 renal = system: TK-10 renal
UACC-62 melanoma = system: UACC-62 melanoma
OVCAR-5 ovarian = system: OVCAR-5 ovarian

SMILES	TGI (EKVX NSCLC) [µM]	TGI (HCC-2998 colon)	TGI (HCT-15 colon)	TGI (M14 melanoma) [µM]	TGI (MCF7 breast)	TGI (NCI/ADR-RES ovarian)	TGI (OVCAR-4 ovarian) [µM]	TGI (SK-MEL-5 melanoma) [µM]	TGI (SW-620 colon)	TGI (TK-10 renal) [µM]	TGI (UACC-62 melanoma)	TGI (OVCAR-5 ovarian) [µM]	GI50 (HCC-2998 colon) [µM]	GI50 (HCT-15 colon) [µM]	GI50 (MCF7 breast) [µM]	GI50 (NCI/ADR-RES ovarian) [µM]	GI50 (OVCAR-5 ovarian) [µM]	GI50 (SW-620 colon) [µM]	GI50 (UACC-62 melanoma) [µM]
CC(=O)Nc1ccc(-c2nc3ccccc3s2)cc1	> 100	> 100 µM	> 100 µM	> 100	> 100 µM	> 100 µM	> 100	> 100	> 100 µM	> 100	> 100 µM								
COc1cc(/C=C/C(=O)O)ccc1C(=O)OCc1ccccc1	> 100	> 100 µM	> 100 µM		> 100 µM	> 100 µM	> 100	> 100	> 100 µM		> 100 µM	> 100							
COC(=O)CN(C)P(=O)(N1CC1)N1CC1	> 100	> 100 µM	> 100 µM	> 100			> 100	> 100	> 100 µM	> 100	> 100 µM	> 100							
Cc1cccc(C(C)C)c1NC(=O)CC1Sc2ccccc2NC1=O (stereo unspecified)	> 100	> 100 µM	> 100 µM	> 100			> 100	> 100	> 100 µM	> 100	> 100 µM	> 100							
CN1CCN(CN2C(=O)C3C4C=CC(C3C2=O)C2C(=O)N(CN3CCN(C)CC3)C(=O)C42)CC1 (stereo unspecified)	> 100	> 100 µM	> 100 µM	> 80.6	72.8 µM	> 100 µM	> 100		7.58 µM	> 100	> 56.9 µM	> 100							
CCCC(O)C(NC(=O)CCl)C(=O)O (stereo unspecified)	> 100	> 100 µM	> 100 µM		> 100 µM	> 100 µM	> 100	> 100	> 100 µM		> 100 µM	> 100							
COc1cc2c3c(c4cc(OC)c(OC)cc4c2cc1OC)C(=O)C1CCC(=O)N1C3 (stereo unspecified)		> 100 µM	> 100 µM		> 100 µM	> 100 µM	> 100	> 100	> 100 µM	54.5	> 100 µM								
O=C(CC(=O)c1ccccc1)CC(O)(c1ccccc1)c1ccccc1		23.8 µM	23 µM	14.9			17.9	13.7	18.1 µM	42.1	14.9 µM	25.6							
CC12CCC3C(CCC4=CC(O)CCC43C=O)C1(O)CCC2c1ccc(=O)oc1 (stereo unspecified)	0.059	0.0665 µM and 0.22 µM	0.107 µM and 0.0622 µM		0.0209 µM and 0.0721 µM	0.196 µM and 0.0533 µM	0.0253	0.0201	0.0967 µM and 0.062 µM		0.0329 µM and 0.0521 µM		0.0591	0.0125	0.00403	0.05	0.00511	0.00909	0.00932
CC(=O)OC1(C#N)CC2OC1C1C2N=NN1C(=O)OC(C)(C)C (stereo unspecified)	> 100	> 100 µM	55.9 µM	46.6			> 100	> 100	> 100 µM	> 100	45.9 µM	> 100							
